Test results: patent US20240391940A1, “FUSED RING-CONTAINING COMPOUND, APPLICATION THEREOF, AND COMPOSITION CONTAINING SAME” (GenEros Biopharma Ltd., priority 2020, published 2024)
Where two headings read alike, the source gives them in different places.

Experiments:
[1] = tested on: collagen-induced arthritis (CIA) mouse model; conditions: for clinical score / body weight: Mean ± SEM
[2] = tested on: collagen-induced arthritis (CIA) mouse model; test: Mouse CIA model, repeated for dose exploration (10, 30, 50 mg/kg); conditions: CIA mice
Description: Testing was repeated for dose exploration
The above method was used.

[3] = GEN1-284s 10, 30 and 50 mg/kg qd po

`O=C(Cc1ccc2ncccc2c1)N1CCC(n2c(=O)n(COP(=O)([O-])[O-])c3cccc(C(F)(F)F)c32)CC1.[Na+].[Na+]` [GEN1-284 salt, (2-Oxo-3-(1-(2-(quinolin-6-yl)acetyl)piperidin-4-yl)-4-(trifluoromethyl)-2,3-dihydro-1H-benzo[d]imidazol-1-yl)methyl disodium phosphate] was tested, and the “Day on which consistent significant inhibition of the score of arthritis began” value ([1]; CIA mice, GEN1-284s 50 mg/kg) was 32 days, the “Histomorphological effect on arthritis” value ([1]; CIA mice, GEN1-284s 50 mg/kg) was “tendency to relieve arthritis in animals” and the “Inhibition rate of clinical score curve AUC relative to vehicle control group” value ([1]; CIA mice, GEN1-284s 50 mg/kg) was 56.9%. For the same compound, the Pathology total score ([1]; CIA mice, GEN1-284s 50 mg/kg) was “lower than that of the vehicle control group”, the clinical score ([1]; CIA mice, GEN1-284s 50 mg/kg p.o. QD from day 28, day 21) was 0.0 ± 0.00 and the clinical score ([1]; CIA mice, GEN1-284s 50 mg/kg p.o. QD from day 28, day 25) was 0.3 ± 0.16. For the same compound, the clinical score ([1]; CIA mice, GEN1-284s 50 mg/kg p.o. QD from day 28, day 28) was 0.6 ± 0.26, the clinical score ([1]; CIA mice, GEN1-284s 50 mg/kg p.o. QD from day 28, day 29) was 0.8 ± 0.25 and the clinical score ([1]; CIA mice, GEN1-284s 50 mg/kg p.o. QD from day 28, day 32) was 1.3 ± 0.31. The clinical score ([1]; CIA mice, GEN1-284s 50 mg/kg p.o. QD from day 28, day 34) was 1.8 ± 0.56, the clinical score ([1]; CIA mice, GEN1-284s 50 mg/kg p.o. QD from day 28, day 36) was 2.4 ± 0.84 and the clinical score ([1]; CIA mice, GEN1-284s 50 mg/kg p.o. QD from day 28, day 39) was 2.9 ± 0.90. It also gave a body weight ([1]; CIA mice, GEN1-284s 50 mg/kg, day 21) of 20.64 ± 0.23, a body weight ([1]; CIA mice, GEN1-284s 50 mg/kg, day 25) of 20.73 ± 0.24 and a body weight ([1]; CIA mice, GEN1-284s 50 mg/kg, day 28) of 20.65 ± 0.25. It also gave a body weight ([1]; CIA mice, GEN1-284s 50 mg/kg, day 29) of 20.49 ± 0.25, a body weight ([1]; CIA mice, GEN1-284s 50 mg/kg, day 32) of 19.66 ± 0.28 and a body weight ([1]; CIA mice, GEN1-284s 50 mg/kg, day 34) of 20.41 ± 0.31. The body weight ([1]; CIA mice, GEN1-284s 50 mg/kg, day 36) was 20.54 ± 0.36, the body weight ([1]; CIA mice, GEN1-284s 50 mg/kg, day 39) was 20.48 ± 0.27 and the body weight ([1]; CIA mice, GEN1-284s 50 mg/kg, day 41) was 20.95 ± 0.20. The “Day on which consistent significant inhibition of the score of arthritis began” value ([1]; CIA mice, GEN1-284s 150 mg/kg) was 34 days, the clinical score ([1]; CIA mice, GEN1-284s 150 mg/kg p.o. QD from day 28, day 21) was 0.0 ± 0.00 and the clinical score ([1]; CIA mice, GEN1-284s 150 mg/kg p.o. QD from day 28, day 25) was 0.0 ± 0.00. For the same compound, the clinical score ([1]; CIA mice, GEN1-284s 150 mg/kg p.o. QD from day 28, day 28) was 0.6 ± 0.26, the clinical score ([1]; CIA mice, GEN1-284s 150 mg/kg p.o. QD from day 28, day 29) was 0.9 ± 0.40 and the clinical score ([1]; CIA mice, GEN1-284s 150 mg/kg p.o. QD from day 28, day 32) was 2.0 ± 0.42. It also gave a clinical score ([1]; CIA mice, GEN1-284s 150 mg/kg p.o. QD from day 28, day 34) of 2.5 ± 0.57, a clinical score ([1]; CIA mice, GEN1-284s 150 mg/kg p.o. QD from day 28, day 36) of 3.4 ± 0.78 and a clinical score ([1]; CIA mice, GEN1-284s 150 mg/kg p.o. QD from day 28, day 39) of 3.9 ± 0.93. For the same compound, the body weight ([1]; CIA mice, GEN1-284s 150 mg/kg, day 21) was 20.40 ± 0.23, the body weight ([1]; CIA mice, GEN1-284s 150 mg/kg, day 25) was 20.53 ± 0.27 and the body weight ([1]; CIA mice, GEN1-284s 150 mg/kg, day 28) was 20.64 ± 0.24. The body weight ([1]; CIA mice, GEN1-284s 150 mg/kg, day 29) was 20.48 ± 0.29, the body weight ([1]; CIA mice, GEN1-284s 150 mg/kg, day 32) was 20.06 ± 0.25 and the body weight ([1]; CIA mice, GEN1-284s 150 mg/kg, day 34) was 20.41 ± 0.41. For the same compound, the body weight ([1]; CIA mice, GEN1-284s 150 mg/kg, day 36) was 20.70 ± 0.35, the body weight ([1]; CIA mice, GEN1-284s 150 mg/kg, day 39) was 20.40 ± 0.29 and the body weight ([1]; CIA mice, GEN1-284s 150 mg/kg, day 41) was 20.91 ± 0.26. It also gave a clinical score ([1]; CIA mice, GEN1-284s 300 mg/kg group (500 mg/kg 5 days, then 300 mg/kg) p.o. QD from day 28, day 21) of 0.0 ± 0.00, a clinical score ([1]; CIA mice, GEN1-284s 300 mg/kg group (500 mg/kg 5 days, then 300 mg/kg) p.o. QD from day 28, day 25) of 0.0 ± 0.00 and a clinical score ([1]; CIA mice, GEN1-284s 300 mg/kg group (500 mg/kg 5 days, then 300 mg/kg) p.o. QD from day 28, day 28) of 0.6 ± 0.26. For the same compound, the clinical score ([1]; CIA mice, GEN1-284s 300 mg/kg group (500 mg/kg 5 days, then 300 mg/kg) p.o. QD from day 28, day 29) was 0.6 ± 0.24, the clinical score ([1]; CIA mice, GEN1-284s 300 mg/kg group (500 mg/kg 5 days, then 300 mg/kg) p.o. QD from day 28, day 32) was 2.0 ± 0.58 and the clinical score ([1]; CIA mice, GEN1-284s 300 mg/kg group (500 mg/kg 5 days, then 300 mg/kg) p.o. QD from day 28, day 34) was 2.5 ± 0.87. The clinical score ([1]; CIA mice, GEN1-284s 300 mg/kg group (500 mg/kg 5 days, then 300 mg/kg) p.o. QD from day 28, day 36) was 4.0 ± 1.15, the clinical score ([1]; CIA mice, GEN1-284s 300 mg/kg group (500 mg/kg 5 days, then 300 mg/kg) p.o. QD from day 28, day 39) was 5.5 ± 1.19 and the clinical score ([1]; CIA mice, GEN1-284s 300 mg/kg group (500 mg/kg 5 days, then 300 mg/kg) p.o. QD from day 28, day 41) was 6.3 ± 1.38. The body weight ([1]; CIA mice, GEN1-284s 300 mg/kg group (500 mg/kg 5 days, then 300 mg/kg), day 21) was 20.18 ± 0.29, the body weight ([1]; CIA mice, GEN1-284s 300 mg/kg group (500 mg/kg 5 days, then 300 mg/kg), day 25) was 20.43 ± 0.27 and the body weight ([1]; CIA mice, GEN1-284s 300 mg/kg group (500 mg/kg 5 days, then 300 mg/kg), day 28) was 20.65 ± 0.34. For the same compound, the body weight ([1]; CIA mice, GEN1-284s 300 mg/kg group (500 mg/kg 5 days, then 300 mg/kg), day 29) was 20.08 ± 0.49, the body weight ([1]; CIA mice, GEN1-284s 300 mg/kg group (500 mg/kg 5 days, then 300 mg/kg), day 32) was 19.48 ± 1.02 and the body weight ([1]; CIA mice, GEN1-284s 300 mg/kg group (500 mg/kg 5 days, then 300 mg/kg), day 34) was 19.30 ± 1.05. The body weight ([1]; CIA mice, GEN1-284s 300 mg/kg group (500 mg/kg 5 days, then 300 mg/kg), day 36) was 19.60 ± 0.81, the body weight ([1]; CIA mice, GEN1-284s 300 mg/kg group (500 mg/kg 5 days, then 300 mg/kg), day 39) was 19.80 ± 0.96 and the body weight ([1]; CIA mice, GEN1-284s 300 mg/kg group (500 mg/kg 5 days, then 300 mg/kg), day 41) was 20.30 ± 0.78. For the same compound, the Mortality ([1]; CIA mice, GEN1-284s 500 mg/kg) was “death was caused among the mice”, the Tolerance ([1]; CIA mice, GEN1-284s 50, 150 and 300 mg/kg) was “good tolerance” and the “Number of mice that died” value ([1]; high-dose group (500 mg/kg), day 32) was “On day 32, 1 mouse in the high-dose group died, and the dissection results showed that: the major abnormality was in the lungs, and no obvious abnormality was found in other organs”. For the same compound, the “Effect on the score of arthritis” value [2, 3] was “consistently and significantly inhibit the score of arthritis”, the “Score of arthritis compared with the tofacitinib positive group” value [2, 3] was “no significant difference from the tofacitinib positive group” and the Tolerance [2, 3] was “good tolerance”. For the same compound, the “Significance of clinical score vs. Vehicle group (Two-way ANOVA)” value ([2]; GEN1-284s 10 mpk, Day 35) was “ns”, the “Significance of clinical score vs. Vehicle group (Two-way ANOVA)” value ([2]; GEN1-284s 10 mpk, Day 38) was “ns” and the “Significance of clinical score vs. Vehicle group (Two-way ANOVA)” value ([2]; GEN1-284s 10 mpk, Day 40) was “ns”. The “Significance of clinical score vs. Vehicle group (Two-way ANOVA)” value ([2]; GEN1-284s 10 mpk, Day 42) was “* (*P < 0.05)”, the “Significance of clinical score vs. Vehicle group (Two-way ANOVA)” value ([2]; GEN1-284s 30 mpk, Day 35) was “ns” and the “Significance of clinical score vs. Vehicle group (Two-way ANOVA)” value ([2]; GEN1-284s 30 mpk, Day 38) was “** (**P < 0.01)”. For the same compound, the “Significance of clinical score vs. Vehicle group (Two-way ANOVA)” value ([2]; GEN1-284s 30 mpk, Day 40) was “* (*P < 0.05)” and the “Significance of clinical score vs. Vehicle group (Two-way ANOVA)” value ([2]; GEN1-284s 30 mpk, Day 42) was “* (*P < 0.05)”.
